These results are taken from US8372379B2, “Technetium-99m (I) tricarbonyl complexes with tridentate chelators for myocardium imaging” (Mallinckrodt LLC, priority 2006, dated 2013).

Structures are written as SMILES.

The data set can be described thus: Biodistribution of 99mTc complexes in female CD-1 mice after intravenous injection. The data set is classed as in vivo. As to conditions: i.v. The protocol:
These studies have been designed as a preliminary screening tool to evaluate the biological profile of the cationic tricarbonyl complexes. The biodistribution of the complexes was evaluated in groups of 5 female CD-1 mice (randomly bred, Charles River) weighing approximately 20-25 g each and have been performed according to EEC Legislation (National Law 129/92) on ethical and animal care. Animals were intravenously injected with 100 μL (1.5-8.0 MBq) of each preparation via the tail vein and were maintained on normal diet ad libitum. […] The injected radioactive dose and the radioactivity remaining in the animal after sacrifice were measured in a dose calibrator (Aloka, Curiemeter IGC-3, Tokyo, Japan). The difference between the radioactivity in the injected and sacrificed animal was assumed to be due to total excretion from whole body animal. Blood samples were taken by cardiac puncture at sacrifice. Tissue samples of the main organs were then removed, weighted and counted in a gamma counter (Berthold). Biodistribution results were expressed as percentage of the injected dose per organ (% ID/organ) and/or per gram tissue (% ID/g). For blood, total activity was calculated assuming that this organ constitutes 6% of the total weight, respectively. The remaining activity in the carcass was also measured in a dose calibrator.

`[C-]#[N+]CC(C)(C)OC.[C-]#[N+]CC(C)(C)OC.[C-]#[N+]CC(C)(C)OC.[C-]#[N+]CC(C)(C)OC.[C-]#[N+]CC(C)(C)OC.[C-]#[N+]CC(C)(C)OC.[Tc]` [^99mTc-Sestamibi]: where the note is “5 min p.i.”, the Blood uptake is on record as 2.0 ± 0.4 % ID/g of wet organ, the Heart uptake was 9.4 ± 0.4 % ID/g of wet organ, the Heart/Blood ratio was 4.1 ± 0.7 and the Heart/Liver ratio came out at 0.9 ± 0.2. Further, for the setting “5 min p.i.”, the Heart/Lung ratio is on record as 3.5 ± 0.8, the Kidney uptake was 34.2 ± 2.4 % ID/g of wet organ, the Liver uptake is 9.0 ± 1.8 % ID/g of wet organ and the Lung uptake is reported as 2.4 ± 0.6 % ID/g of wet organ. Besides, under “1 h (60 min) p.i.”, the Blood uptake was 1.2 ± 0.4 % ID/g of wet organ, the Heart uptake is 8.0 ± 0.6 % ID/g of wet organ, the Heart/Blood ratio is listed as 7.9 ± 3.6 and the Heart/Liver ratio amounted to 1.4 ± 0.1. Besides, for the setting “1 h (60 min) p.i.”, the Heart/Lung ratio turned out to be 6.3 ± 0.6, the Kidney uptake is 14.8 ± 6.1 % ID/g of wet organ, the Liver uptake is 5.6 ± 0.3 % ID/g of wet organ and the Lung uptake is reported as 1.3 ± 0.2 % ID/g of wet organ. Moreover, under “2 h (120 min) p.i.”, the Blood uptake is 1.1 ± 0.3 % ID/g of wet organ, the Heart uptake is reported as 7.9 ± 1.0 % ID/g of wet organ, the Heart/Blood ratio came out at 7.4 ± 2.3 and the Heart/Liver ratio was found to be 1.8 ± 0.7. Besides, under “2 h (120 min) p.i.”, the Heart/Lung ratio was 9.2 ± 1.1, the Kidney uptake is given as 9.7 ± 1.8 % ID/g of wet organ, the Liver uptake is given as 5.0 ± 2.1 % ID/g of wet organ and the Lung uptake is 0.9 ± 0.2 % ID/g of wet organ.
